Test results published in patent US7745446B2, “Pyrazolo[1,5-c]pyrimidines” (Bayer Schering Pharma Aktiengesellschaft, priority 2004, dated 2010).

What was measured:
[1] = biological target: T1, GST-ΔPH-Akt1 (Homo sapiens, UniProt P31749); assay: Biochemical ΔPH Akt1 assay (flashplate, 33P incorporation into histone 2B); details: 100 nM ATP, histone 2B substrate; read-out: ΔPHAkt1 inhibition: IC50
T1 construct: named GST-deltaPH-Akt1; 107-480aa; cloned in the pAcGl vector; GST (N); made in house; host or cells: SF9 insect cells (baculovirus vector pAcG1), co-expressed with PDK1
In short: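 The enzyme was GST-fused human Akt1 lacking the PH domain (aa 107–480), co-expressed with PDK1 in Sf9 cells, at 100 ng/well, with 100 ng/well histone 2B substrate and 100 nM ATP including 33P-ATP. 33P incorporation was counted on scintillant-coated flashplates.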

[2] = biological target: T2, full-length Akt1 (inactive) (Homo sapiens, UniProt P31749); assay: Biochemical Akt1 assay (full-length Akt1 inactive, PDK1-dependent activation, IMAP); details: PDK1 and PIP3 vesicles, 50 μM ATP; read-out: Inhibition of Akt1 activation (full-length Akt1, inactive): IC50
T2 construct: recombinant full-length human Akt1 a containing N-terminal His6 tag; His6 (N); purchased Upstate, UK #14-279; host or cells: baculovirus infected Sf21 insect cells
Description: The enzyme is purified using Ni2+/NTA-agarose (Upstate, UK; #14-279).
The enzyme is purified using Ni2+/NTA-agarose.
PDK1-dependent activation and subsequent enzymatic activity of Akt1: Activity of purified human Akt1 is routinely measured in an assay in which the enzyme is first activated by PDK1 in the presence of phosphatidylinositol-3,4,5-triphosphate (PIP3). Once activated, Akt1-dependent phosphorylation of a fluorescence labelled peptide substrate is measured by fluorescence polarisation using the IMAP technology (Molecular Devices).
The phospholipids are prepared as follows: 5 mg DOPC/DOPS are solved in 200 μl 10 mM Tris (pH 7.4) and 300 μg PIP3 are resuspended in 950 μl 10 mM Tris (pH 7.4) by pipetting. 950 μl solved PIP3 are mixed with 50 μl solved DOPC/DOPS and incubated for 2 h at a temperature below 20° C. Then the mixture is subjected to sonification for 30 min. at max. power until a translucent phopholipid vesicle preparation is obtained. Aliquots of the vesicle suspension are frozen at -80° C. until needed, likewise the solved DOPC/DOPS.
Assays are performed in 384-well plates. Incubations are carried out for 60 min. at room temperature. The reaction buffer mixture contained in a final volume of 25 μl: 10 mM Tris pH 7,4, 10 mM MgCl2. 1 mM DTT, and 0.1 mg/ml BSA. In contrast the activation buffer contained: 50 ng/well Akt1, 20 ng/well PDK1, 1.25 μM peptide substrat, 50 μM ATP, and phospholipid vesicles (1:20). Test compounds are added from stock solutions in DMSO before activation of Akt1 by PDK1. After the incubation the beads (IMAP binding reagent; Molecular Devices; 1:167) are added and the fluorescence polarization is measured (excitation 485 nm, emission 530 nm).

[3] = test system: MCF7 cells; assay: Cellular proliferation/cytotoxicity assay (Alamar Blue), MCF7; details: Homo sapiens, MCF7, 48 h, read-out: Anti-proliferative/cytotoxic activity: IC50 MCF7
Description: (§1) The anti-proliferative activity of the compounds as described herein, is evaluated using MCF7 and MDA-MB-468 (ATCC HTB-22 and HTB-132) cell lines and the Alamar Blue (Resazurin) cell viability assay (O'Brien et al. Eur J Biochem 267, 5421-5426, 2000). Resazurin is reduced to the fluorescent resorufin by cellular dehydrogenase activity, correlating with viable, proliferating cells. Test compounds are dissolved as 10 mM solutions in DMSO and subsequently diluted. MCF7 or MDA-MB-434 cells were seeded into 96 well flat bottom plates at a density of 10000 cells/well (MCF7) or 5000 cells/well (MDA-MB-468) in a volume of 200 μl/well. 24 hours after seeding, 1 μl each of the compound dilutions are added into each well of the 96 well plates. Each compound dilution is tested as at least as duplicates. Wells containing untreated control cells were filled with 200 μl DMEM containing 0.5% v:v DMSO. The cells are then incubated with the substances for 48 hours at 37° C. in a humidified atmosphere containing 5% carbon dioxide. To determine cell viability, 20 μl of a Resazurin solution (Sigma; 90 mg/l) are added. After 4 hours incubation at 37° C. the fluorescence is measured at an extinction of 544 nm and an emission of 590 nm (Wallac Victor2; Perkin Elmer, USA). For the calculation of the cell viability the emission value from untreated cells is set as 100% viability and the emission rates of treated cells are set in relation to the values of untreated cells. Viabilities are expressed as % values. The corresponding IC50 values of the compounds for cytotoxic activity are determined from the concentration-effect curves by means of non-linear regression. The analysis of the data is performed using a biostatistical program (GraphPad Prism, USA).

[4] = test system: MDA-MB-468 cells; assay: Cellular proliferation/cytotoxicity assay (Alamar Blue), MDA-MB-468; details: Homo sapiens, MDA-MB-468, 48 h, read-out: Anti-proliferative/cytotoxic activity: IC50 MDA468
Description: as §1

T1 sequence (P31749 107-480, stated change not applied): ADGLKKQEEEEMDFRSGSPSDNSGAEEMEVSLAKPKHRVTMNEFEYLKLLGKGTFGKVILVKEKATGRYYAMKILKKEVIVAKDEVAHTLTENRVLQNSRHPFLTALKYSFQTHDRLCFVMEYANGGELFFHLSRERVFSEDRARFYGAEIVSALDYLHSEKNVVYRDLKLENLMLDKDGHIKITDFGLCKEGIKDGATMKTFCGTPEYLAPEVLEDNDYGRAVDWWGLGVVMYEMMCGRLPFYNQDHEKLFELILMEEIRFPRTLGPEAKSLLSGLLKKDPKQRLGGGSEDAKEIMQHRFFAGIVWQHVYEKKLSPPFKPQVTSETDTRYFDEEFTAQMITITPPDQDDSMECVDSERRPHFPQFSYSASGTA
T2 sequence (P31749 whole entry): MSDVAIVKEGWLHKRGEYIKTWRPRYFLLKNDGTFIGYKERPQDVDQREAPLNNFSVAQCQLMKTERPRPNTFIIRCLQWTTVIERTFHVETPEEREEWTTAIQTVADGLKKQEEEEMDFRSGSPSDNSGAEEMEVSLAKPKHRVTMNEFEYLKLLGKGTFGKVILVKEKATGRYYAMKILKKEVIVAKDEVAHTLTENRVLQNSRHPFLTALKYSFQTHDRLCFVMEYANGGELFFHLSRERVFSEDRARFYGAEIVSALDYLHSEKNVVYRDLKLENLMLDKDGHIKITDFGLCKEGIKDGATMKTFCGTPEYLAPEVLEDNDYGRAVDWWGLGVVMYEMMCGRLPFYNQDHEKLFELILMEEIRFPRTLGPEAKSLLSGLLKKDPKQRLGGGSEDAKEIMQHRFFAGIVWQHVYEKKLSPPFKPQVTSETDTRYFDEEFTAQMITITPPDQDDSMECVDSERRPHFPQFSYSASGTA

Row | IC50 [1] [µM] | IC50 [2] [µM] | Compound | IC50 [3] [µM] | IC50 [4] [µM]
1 | ≤ 1.75 | ≤ 5 | NCCCC(=O)Nc1ccc(Nc2nc(-c3cccc4c3oc3ccccc34)cc3ccnn23)cc1 [Example 24, 4-Amino-N-[4-(5-dibenzofuran-4-yl-pyrazolo[1,5-c]pyrimidin-7-ylamino)-phenyl]-butyramide] | ≤ 16.9 | ≤ 13.6
2 | ≤ 1.75 | ≤ 5 | COc1cccc(-c2ccc(-c3cc4ccnn4c(Nc4ccc(NC(=O)c5ccc(CN)cc5)cc4)n3)cc2)c1 [Example 59, 4-Aminomethyl-N-{4-[5-(3′-methoxy-biphenyl-4-yl)-pyrazolo[1,5-c]pyrimidin-7-ylamino]-phenyl}-benzamide] | ≤ 16.9 | ≤ 13.6
3 | ≤ 1.75 | ≤ 5 | O=C(Nc1cccc(Nc2nc(-c3cccc4c3oc3ccccc34)cc3ccnn23)c1)c1ccc2c(c1)CCNC2 [Example 63, 1,2,3,4-Tetrahydro-isoquinoline-6-carboxylic acid [3-(5-dibenzofuran-4-yl-pyrazolo[1,5-c]pyrimidin-7-ylamino)-phenyl]-amide] | ≤ 16.9 | ≤ 13.6
4 | ≤ 1.75 | ≤ 5 | COc1cccc(-c2ccc(-c3cc4c(Br)cnn4c(Nc4ccc(NC(=O)c5ccc(CN)cc5)cc4)n3)cc2)c1 [Example 87, 4-Aminomethyl-N-{4-[3-bromo-5-(3′-methoxy-biphenyl-4-yl)-pyrazolo[1,5-c]pyrimidin-7-ylamino]-phenyl}-benzamide] | ≤ 16.9 | ≤ 13.6
